test system: PC3 cells; experiment: NAMPT Cell Proliferation Assay; format: cell-based; settings: Homo sapiens, PC-3, 120 h, 5 days incubation, cell viability by Cell Titer Glo
Method in brief: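 Five-day CellTiter-Glo viability readout in PC3 cells grown in RPMI/10% heat-inactivated FBS. Compounds added after overnight attachment as a 10-fold dilution series, […]. Percent inhibition fitted to sigmoidal dose-response to derive IC50.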

Compound | IC50
O=C(Nc1ccc(S(=O)(=O)C2CCN(C(=O)c3cccc4ccccc34)CC2)cc1)C1CN(c2cccnn2)C1 [Example 591, N-(4-{[1-(naphthalen-1-ylcarbonyl)piperidin-4-yl]sulfonyl}phenyl)-1-(pyridazin-3-yl)azetidine-3-carboxamide] | 93.6 nM
O=C(Nc1ccc(O[C@@H]2CCN(C(=O)C3CCOC3)C2)cc1)C1CN(c2ccnnc2)C1 (stereo partly drawn) [Example 461, 1-(pyridazin-4-yl)-N-(4-{[(3R)-1-(tetrahydrofuran-3-ylcarbonyl)pyrrolidin-3-yl]oxy}phenyl)azetidine-3-carboxamide] | 646 nM
CC(C)CC(=O)N1CCC(Oc2ccc(NC(=O)C3CN(c4cccnc4)C3)cc2)CC1 [Example 45, N-(4-{[1-(3-methylbutanoyl)piperidin-4-yl]oxy}phenyl)-1-(pyridin-3-yl)azetidine-3-carboxamide] | 6.77 nM
CC(C)CC(=O)N1CCC(Oc2ccc(NC(=O)C3CN(c4ccnnc4)C3)cc2)CC1 [Example 266, N-(4-{[1-(3-methylbutanoyl)piperidin-4-yl]oxy}phenyl)-1-(pyridazin-4-yl)azetidine-3-carboxamide] | 83 nM
CC(C)C(=O)N1CCC(Oc2ccc(NC(=O)[C@H]3CCN(c4cccnc4)C3)cc2)CC1 [Example 12, (3S)-N-(4-{[1-(2-methylpropanoyl)piperidin-4-yl]oxy}phenyl)-1-(pyridin-3-yl)pyrrolidine-3-carboxamide] | 84.4 nM
O=C(Nc1ccc(OC2CCN(C(=O)Cc3ccc(F)cc3)CC2)cc1)C1CN(c2cccnn2)C1 [Example 232, N-[4-({1-[(4-fluorophenyl)acetyl]piperidin-4-yl}oxy)phenyl]-1-(pyridazin-3-yl)azetidine-3-carboxamide] | 8.74 nM
O=C(Nc1ccc(OC2CCN(C(=O)Cc3ccc(C(F)(F)F)cc3)CC2)cc1)C1CN(c2ccnnc2)C1 [Example 273, 1-(pyridazin-4-yl)-N-{4-[(1-{[4-(trifluoromethyl)phenyl]acetyl}piperidin-4-yl)oxy]phenyl}azetidine-3-carboxamide] | 634 nM
O=C(Nc1ccc(OC2CCN(C(=O)CC3CCOCC3)CC2)cc1)C1CN(c2cccnc2C(F)(F)F)C1 [Example 3, N-(4-{[1-(tetrahydro-2H-pyran-4-ylacetyl)piperidin-4-yl]oxy}phenyl)-1-[2-(trifluoromethyl)pyridin-3-yl]azetidine-3-carboxamide] | 7330 nM
CC[C@H](C)C(=O)N1CC[C@@H](Oc2ccc(NC(=O)C3CN(c4ccnnc4)C3)cc2)C1 [Example 445, N-[4-({(3R)-1-[(2S)-2-methylbutanoyl]pyrrolidin-3-yl}oxy)phenyl]-1-(pyridazin-4-yl)azetidine-3-carboxamide] | 19.1 nM
Cc1ncccc1N1CC(C(=O)Nc2ccc(C3CCN(C(=O)[C@H]4CCC(=O)N4)CC3)cc2)C1 [Example 167, 1-(2-methylpyridin-3-yl)-N-{4-[1-(5-oxo D-prolyl)piperidin-4-yl]phenyl}azetidine-3-carboxamide] | 6250 nM
CC(C)Cn1cc(-c2ccc(NC(=O)C3CN(c4ccnnc4)C3)cc2)cn1 [Example 148, N-{4-[1-(2-methylpropyl)-1H-pyrazol-4-yl]phenyl}-1-(pyridazin-4-yl)azetidine-3-carboxamide] | 76.1 nM
O=C(Nc1ccc(OC2CCN(C(=O)c3cccs3)CC2)cc1)C1CN(c2cccnc2)C1 [Example 61, 1-(pyridin-3-yl)-N-(4-{[1-(thiophen-2-ylcarbonyl)piperidin-4-yl]oxy}phenyl)azetidine-3-carboxamide] | 3.52 nM
CC[C@H](C)C(=O)N1CCC(c2ccc(NC(=O)C3CN(c4ccnnc4)C3)cc2)CC1 [Example 143, N-(4-{1-[(2S)-2-methylbutanoyl]piperidin-4-yl}phenyl)-1-(pyridazin-4-yl)azetidine-3-carboxamide] | 4.96 nM
CCC(C)(C)C(=O)N1CCC(c2ccc(NC(=O)C3CN(c4cccnc4)C3)cc2)CC1 [Example 133, N-{4-[1-(2,2-dimethylbutanoyl)piperidin-4-yl]phenyl}-1-(pyridin-3-yl)azetidine-3-carboxamide] | 0.62 nM
CCC(=O)N1CCC(Oc2ccc(NC(=O)C3CN(c4cccnc4)C3)cc2)CC1 [Example 65, N-{4-[(1-propanoylpiperidin-4-yl)oxy]phenyl}-1-(pyridin-3-yl)azetidine-3-carboxamide] | 6.38 nM
O=C(Nc1ccc(C2(F)CCN(C(=O)c3ccccc3)CC2)cc1)C1CN(c2cccnn2)C1 [Example 863, N-[4-(1-benzoyl-4-fluoropiperidin-4-yl)phenyl]-1-(pyridazin-3-yl)azetidine-3-carboxamide] | 5.67 nM
O=C(Nc1ccc(C2CC3CCC(C2)N3C(=O)c2ccccc2)cc1)C1CN(c2cccnn2)C1 (centres unmarked) [Example 842, N-[4-(8-benzoyl-8-azabicyclo[3.2.1]oct-3-yl)phenyl]-1-(pyridazin-3-yl)azetidine-3-carboxamide] | 0.665 nM
O=C(Nc1ccc(OC2CN(C(=O)c3ccccc3)C2)cc1)C1CN(c2ccnnc2)C1 [Example 206, N-{4-[(1-benzoylazetidin-3-yl)oxy]phenyl}-1-(pyridazin-4-yl)azetidine-3-carboxamide] | 67.4 nM
Cc1ncccc1N1CC(C(=O)Nc2ccc(C3CCN(C(=O)C(C)C)CC3)cc2)C1 [Example 29, N-{4-[1-(2-methylpropanoyl)piperidin-4-yl]phenyl}-1-(2-methylpyridin-3-yl)azetidine-3-carboxamide] | 135 nM
O=C(Nc1ccc(C2CCN(C(=O)c3ccc(F)c(F)c3)CC2)cc1)C1CN(c2ccnnc2)C1 [Example 533, N-{4-[1-(3,4-difluorobenzoyl)piperidin-4-yl]phenyl}-1-(pyridazin-4-yl)azetidine-3-carboxamide] | 24.6 nM
CC(C)C(=O)N1CC[C@@H](Oc2ccc(NC(=O)C3CN(c4ccnnc4)C3)cc2)C1 [Example 471, N-(4-{[(3R)-1-(2-methylpropanoyl)pyrrolidin-3-yl]oxy}phenyl)-1-(pyridazin-4-yl)azetidine-3-carboxamide] | 72 nM
CC(C)(C)CC(=O)N1CCC(c2ccc(NC(=O)C3CN(c4cccnn4)C3)c(F)c2)CC1 [Example 835, N-{4-[1-(3,3-dimethylbutanoyl)piperidin-4-yl]-2-fluorophenyl}-1-(pyridazin-3-yl)azetidine-3-carboxamide] | 2.35 nM

Now from value to molecule:

IC50 | Compound
2.92 nM | O=C(Nc1ccc(C2CCN(C(=O)Cc3c(Cl)cccc3Cl)CC2)cc1)[C@H]1CCN(c2cccnn2)C1 [Example 640, (3S)-N-(4-{1-[(2,6-dichlorophenyl)acetyl]piperidin-4-yl}phenyl)-1-(pyridazin-3-yl)pyrrolidine-3-carboxamide]
8.39 nM | O=C(Nc1ccc(C2CCN(C(=O)Cc3ccccc3Cl)CC2)cc1)[C@H]1CCN(c2cccnn2)C1 [Example 721, (3S)-N-(4-{1-[(2-chlorophenyl)acetyl]piperidin-4-yl}phenyl)-1-(pyridazin-3-yl)pyrrolidine-3-carboxamide]
9.63 nM | Cc1ccc(C(=O)N2CCC(c3ccc(NC(=O)[C@H]4CCN(c5cccnn5)C4)cc3)CC2)cc1F [Example 719, (3S)-N-{4-[1-(3-fluoro-4-methylbenzoyl)piperidin-4-yl]phenyl}-1-(pyridazin-3-yl)pyrrolidine-3-carboxamide]
> 10000 nM | O=C(Nc1ccc(C2CCN(C(=O)CCC(F)(F)F)CC2)cc1)C1CCN(c2cccnn2)CC1 [Example 628, 1-(pyridazin-3-yl)-N-{4-[1-(4,4,4-trifluorobutanoyl)piperidin-4-yl]phenyl}piperidine-4-carboxamide]
0.38 nM | O=C(Nc1ccc(C2CCN(C(=O)Cc3c(Cl)cccc3Cl)CC2)cc1)C1CN(c2cccnn2)C1 [Example 423, N-(4-{1-[(2,6-dichlorophenyl)acetyl]piperidin-4-yl}phenyl)-1-(pyridazin-3-yl)azetidine-3-carboxamide]
4.05 nM | Cc1ccc(C(=O)N2CCC(c3ccc(NC(=O)[C@H]4CCN(c5cccnn5)C4)cc3)CC2)c(C)c1 [Example 672, (3S)-N-{4-[1-(2,4-dimethylbenzoyl)piperidin-4-yl]phenyl}-1-(pyridazin-3-yl)pyrrolidine-3-carboxamide]
8.16 nM | O=C(Nc1ccc(C2CCN(C(=O)c3cccc4ccccc34)CC2)cc1)[C@H]1CCN(c2cccnn2)C1 [Example 639, (3S)-N-{4-[1-(naphthalen-1-ylcarbonyl)piperidin-4-yl]phenyl}-1-(pyridazin-3-yl)pyrrolidine-3-carboxamide]
9.02 nM | Cc1cc(C)cc(CC(=O)N2CCC(c3ccc(NC(=O)[C@H]4CCN(c5cccnn5)C4)cc3)CC2)c1 [Example 683, (3S)-N-(4-{1-[(3,5-dimethylphenyl)acetyl]piperidin-4-yl}phenyl)-1-(pyridazin-3-yl)pyrrolidine-3-carboxamide]
2720 nM | Cc1ncccc1N1CC[C@H](C(=O)Nc2ccc(C3CCN(C(=O)c4ccccc4F)CC3)cc2)C1 [Example 744, (3S)—N-{4-[1-(2-fluorobenzoyl)piperidin-4-yl]phenyl}-1-(2-methylpyridin-3-yl)pyrrolidine-3-carboxamide]
72.6 nM | O=C(Nc1ccc(C2CCN(C(=O)Cc3cccc4ccccc34)CC2)cc1)[C@H]1CCN(c2cccnn2)C1 [Example 641, (3S)-N-{4-[1-(naphthalen-1-ylacetyl)piperidin-4-yl]phenyl}-1-(pyridazin-3-yl)pyrrolidine-3-carboxamide]
2.37 nM | CC(C)CC(=O)N1CCC(c2ccc(NC(=O)C3CN(c4cccnn4)C3)cc2)CC1 [Example 320, N-{4-[1-(3-methylbutanoyl)piperidin-4-yl]phenyl}-1-(pyridazin-3-yl)azetidine-3-carboxamide]
1.99 nM | COc1ccccc1C(=O)N1CCC(c2ccc(NC(=O)C3CN(c4cccnn4)C3)cc2)CC1 [Example 345, N-{4-[1-(2-methoxybenzoyl)piperidin-4-yl]phenyl}-1-(pyridazin-3-yl)azetidine-3-carboxamide]
2.14 nM | O=C(Nc1ccc(C2CCN(C(=O)c3cc(C(F)(F)F)ccc3Cl)CC2)cc1)C1CN(c2cccnn2)C1 [Example 395, N-(4-{1-[2-chloro-5-(trifluoromethyl)benzoyl]piperidin-4-yl}phenyl)-1-(pyridazin-3-yl)azetidine-3-carboxamide]

Reference: patent US20130303509A1, “NAMPT INHIBITORS” (AbbVie Inc., priority 2012, published 2013)
